According to ChEMBL document CHEMBL3817739, “Synthesis and cytotoxic evaluation of several oleanolic aciduracil/thymine conjugates” (Medchemcomm, 2016):
The source made the active and inactive calls. The calls are words filed in the database; no cut-off is given here.

Legend:
HepG2 [1] = assay: Induction of apoptosis in human HepG2 cells assessed as viable cells at 2 uM after 24 hrs by Annexin V-FITC/propidium iodide staining based flow cytometry (reference value: 93.2%); assay type: functional; conditions: HepG2, 24 h, read-out: Activity
HepG2 [2] = assay: Disruption of mitochondrial membrane potential in human HepG2 cells after 24 hrs by Rhodamine 123 staining based flow cytometry; assay type: functional, cell-based
HepG2 [3] = assay: Cell cycle arrest in human HepG2 cells assessed as accumulation at G1 phase at 2 uM after 48 hrs by propidium iodide staining based flow cytometry (reference value: 60.65%); assay type: functional
A549 = assay: Cytotoxicity against human A549 cells assessed as inhibition of cell proliferation after 72 hrs by MTT assay; assay type: functional, cell-based; conditions: A549, 72 h
HepG2 [4] = assay: Cell cycle arrest in human HepG2 cells assessed as accumulation at G1 phase at 4 uM after 48 hrs by propidium iodide staining based flow cytometry (reference value: 60.65%); assay type: functional
HepG2 [5] = assay: Induction of apoptosis in human HepG2 cells assessed as caspase 9 activation at 4 uM using FITC-LEHD-FMK as probe after 24 hrs by flow cytometry (reference value: 4.4%); assay type: functional
HepG2 [6] = assay: Induction of apoptosis in human HepG2 cells assessed as early apoptotic cells at 2 uM after 24 hrs by Annexin V-FITC/propidium iodide staining based flow cytometry (reference value: 1.36%); assay type: functional
HepG2 [7] = assay: Induction of apoptosis in human HepG2 cells assessed as viable cells at 4 uM after 24 hrs by Annexin V-FITC/propidium iodide staining based flow cytometry (reference value: 93.2%); assay type: functional; conditions: HepG2, 24 h, read-out: Activity
HepG2 [8] = assay: Cell cycle arrest in human HepG2 cells assessed as accumulation at S phase at 4 uM after 48 hrs by propidium iodide staining based flow cytometry (reference value: 25.52%); assay type: functional
[9] = Cytotoxicity against human BGC823 cells assessed as inhibition of cell proliferation after 72 hrs by MTT assay; assay type: functional, cell-based; conditions: BGC-823, 72 h
HepG2 [10] = assay: Induction of apoptosis in human HepG2 cells assessed as early apoptotic cells at 4 uM after 24 hrs by Annexin V-FITC/propidium iodide staining based flow cytometry (reference value: 1.36%); assay type: functional
HepG2 [11] = assay: Induction of apoptosis in human HepG2 cells assessed as late apoptotic cells at 4 uM after 24 hrs by Annexin V-FITC/propidium iodide staining based flow cytometry (reference value: 2.7%); assay type: functional
[12] = Cytotoxicity against human PC3 cells assessed as inhibition of cell proliferation after 72 hrs by MTT assay; assay type: functional, cell-based, PC-3; conditions: Homo sapiens, PC-3, 72 h; read-out: IC50
HepG2 [13] = assay: Cell cycle arrest in human HepG2 cells assessed as accumulation at S phase at 2 uM after 48 hrs by propidium iodide staining based flow cytometry (reference value: 25.52%); assay type: functional
HepG2 [14] = assay: Disruption of mitochondrial membrane potential in human HepG2 cells assessed as mitochondrial membrane potential at 3 uM after 24 hrs by Rhodamine 123 staining based flow cytometry (reference value: 86.2%); assay type: functional
HepG2 [15] = assay: Disruption of mitochondrial membrane potential in human HepG2 cells assessed as mitochondrial membrane potential at 2 uM after 24 hrs by Rhodamine 123 staining based flow cytometry (reference value: 86.2%); assay type: functional
HepG2 [16] = assay: Induction of morphological changes in human HepG2 cells assessed as chromatin condensation and fragmentation at 2 to 4 uM after 24 hrs by acridine orange/ethidium bromide double staining based fluorescence microscopy; assay type: functional, cell-based
HepG2 [17] = assay: Cell cycle arrest in human HepG2 cells assessed as accumulation at G2/M phase at 2 uM after 48 hrs by propidium iodide staining based flow cytometry (reference value: 13.83%); assay type: functional
HepG2 [18] = assay: Induction of apoptosis in human HepG2 cells assessed as karyopyknosis and chromatin condensation at 2 to 4 uM after 24 hrs by Hoechst 33258 staining based fluorescence microscopy; assay type: functional, cell-based
HepG2 [19] = assay: Cell cycle arrest in human HepG2 cells assessed as accumulation at G2/M phase at 4 uM after 48 hrs by propidium iodide staining based flow cytometry (reference value: 13.83%); assay type: functional
HepG2 [20] = assay: Disruption of mitochondrial membrane potential in human HepG2 cells assessed as mitochondrial membrane potential at 4 uM after 24 hrs by Rhodamine 123 staining based flow cytometry (reference value: 86.2%); assay type: functional
HepG2 [21] = assay: Cytotoxicity against human HepG2 cells assessed as inhibition of cell proliferation after 72 hrs by MTT assay; assay type: functional, cell-based; conditions: HepG2, 72 h
HepG2 [22] = assay: Cell cycle arrest in human HepG2 cells assessed as accumulation at G2/M phase at 3 uM after 48 hrs by propidium iodide staining based flow cytometry (reference value: 13.83%); assay type: functional
HepG2 [23] = assay: Induction of apoptosis in human HepG2 cells assessed as necrotic cells at 2 uM after 24 hrs by Annexin V-FITC/propidium iodide staining based flow cytometry (reference value: 2.7%); assay type: functional
MCF7 = assay: Cytotoxicity against human MCF7 cells assessed as inhibition of cell proliferation after 72 hrs by MTT assay; assay type: functional, cell-based; conditions: MCF7, 72 h
HepG2 [24] = assay: Cell cycle arrest in human HepG2 cells assessed as accumulation at G1 phase at 3 uM after 48 hrs by propidium iodide staining based flow cytometry (reference value: 60.65%); assay type: functional
HepG2 [25] = assay: Induction of apoptosis in human HepG2 cells assessed as caspase 3 activation at 4 uM using FITC-DEVD-FMK as probe after 24 hrs by flow cytometry (reference value: 3.3%); assay type: functional
HepG2 [26] = assay: Induction of apoptosis in human HepG2 cells assessed as necrotic cells at 4 uM after 24 hrs by Annexin V-FITC/propidium iodide staining based flow cytometry (reference value: 2.7%); assay type: functional
HepG2 [27] = assay: Cell cycle arrest in human HepG2 cells assessed as accumulation at S phase at 3 uM after 48 hrs by propidium iodide staining based flow cytometry (reference value: 25.52%); assay type: functional
HepG2 [28] = assay: Induction of apoptosis in human HepG2 cells assessed as late apoptotic cells at 2 uM after 24 hrs by Annexin V-FITC/propidium iodide staining based flow cytometry (reference value: 2.7%); assay type: functional

For `CC1(C)CC[C@]2(C(=O)OCCCCCCn3ccc(=O)[nH]c3=O)CC[C@]3(C)C(=CC[C@@H]4[C@@]5(C)CC[C@H](O)C(C)(C)[C@@H]5CC[C@]43C)[C@@H]2C1`, the viability at 2 µM (HepG2 [1]) was 88%, the Activity (HepG2 [2]) was “Dose-dependent effect” and the Activity (HepG2 [3]) was 92.75%. The IC50 (A549) was 3160 nM, the Activity (HepG2 [4]) was 82.48% and the Activity (HepG2 [5]) was 27.9%. For the same compound, the Activity (HepG2 [6]) was 1.91%, the viability at 4 µM (HepG2 [7]) was 76.1% and the Activity (HepG2 [8]) was 14.27%. It also gave an IC50 [9] of 1280 nM, an Activity (HepG2 [10]) of 1.83% and an Activity (HepG2 [11]) of 17.7%. The IC50 [12] was 180 nM, the Activity (HepG2 [13]) was 6.51% and the Activity (HepG2 [14]) was 67%. The Activity (HepG2 [15]) was 77.7%, the Activity (HepG2 [16]) was “Active” and the Activity (HepG2 [17]) was 0.74%. For the same compound, the Activity (HepG2 [18]) was “Active”, the Activity (HepG2 [19]) was 3.25% and the Activity (HepG2 [20]) was 49.4%. For the same compound, the IC50 (HepG2 [21]) was 3980 nM, the Activity (HepG2 [22]) was 1.73% and the Activity (HepG2 [23]) was 2.36%. For the same compound, the IC50 (MCF7) was 2750 nM, the Activity (HepG2 [24]) was 88.09% and the Activity (HepG2 [25]) was 31%. The Activity (HepG2 [26]) was 4.32%, the Activity (HepG2 [27]) was 10.18% and the Activity (HepG2 [28]) was 7.75%.
